Earlier results in patent publication US6503506B1, “Nutrient therapy for immuno-compromised patients” (Millenium Biotechnologies, Inc., priority 2001, dated 2003).

Columns and labels:
[1] = tested on: mitochondrial DNA; settings: patients on long-term therapy
[2] = tested on: HIV

Cc1cn([C@H]2C[C@H](N=[N+]=[N-])[C@@H](CO)O2)c(=O)[nH]c1=O [zidovudine (AZT), zidovudine]
levels of mitochondrial DNA in muscle [1]: depletes levels of mitochondrial DNA in muscle

superoxide dismutase [SOD]
levels of the virus core protein ([2]; indicator of virus presence in the cells): reduced the levels of the virus core protein | spread of HIV through infected cells ([2]; infected white blood cells from patients with HIV): slowed down the spread of HIV through the infected cells

COC1=C(OC)C(=O)C(C/C=C(\C)CC/C=C(\C)CC/C=C(\C)CC/C=C(\C)CC/C=C(\C)CC/C=C(\C)CC/C=C(\C)CC/C=C(\C)CC/C=C(\C)CCC=C(C)C)=C(C)C1=O [COQ10, Coenzyme Q10]
T4/T8 ratios of lymphocytes (HIV patients, oral administration): positive increase in T4/T8 rations | IgG and T4-lymphocytes (human studies, administered orally): increases IgG and T4-lymphocytes
